# In patent US4738971A, “N-aryl-1,2-dihydro-4-substituted-1-alkyl-2-oxo-quinoline-3-carboxamides” (priority 1981, dated 1988):
# Where two headings read alike, the source gives them in different places.
# What was measured:
# [1] = system: carrageenan-induced edema; test: carrageenan edema test in rats; type: in vivo, rat (female Sprague-Dawley); conditions: for change in vivo at 80 mg/kg: Rattus norvegicus, po, 80 mg/kg p.o., 30 min before carrageenan, edema weight 3 h after, vs control, preliminary, read-out: Potentiation of the carrageenan edema, %
# Text: Another test, in which the effect of a drug corresponds to the effects obtained in the tests mentioned above, and which can therefore also be used, is the well-established carrageenan edema test in rats (5). Comparative evaluation of compounds of the present invention in the three tests mentioned has shown that compounds which increase the extent of the delayed hypersensitivity reaction in the pertussis vaccine pleurisy test and in the adjuvant arthritis test also increase the extent of carrageenan-induced edema in the carrageenan edema test, thus providing a further tool for the determination of enhancement of cell-mediated immunity.
# This example illustrates the effect of the compounds of the general formula I in the carrageenan edema test in rats.
# A modification of a method described in (5) was used. Female Sprague-Dawleyrats weighing 110-120 g was used. At least 10 animals were used in each experimental group. Foot edema was induced by injecting carrageenan in 0.9% NaCl into the plantar surface of the right hind paw of the rats.
# The substances suspended in aqueous methocel solution 10 ml/kg were administered intragastrically 30 minutes before the injection of carrageenan. The control groups were given methocel solution 10 ml/kg.
# Three hours after carrageenan injection the animals were killed. The hind feet were cut off and weighed. The difference in weight of the injected right paw and the uninjected left paw was called edema weight.
# The effect of the substances was assessed by the edema weight expressed in percent after comparison with the control groups.
# [2] = system: delayed hypersensitivity reaction (adjuvant arthritis, Mycobacterium butyricum); test: adjuvant arthritis test in rats; type: in vivo, rat (male Lister hooded)
# Text: (§1) The adjuvant arthritis test in rats produces a measureable extent of a delayed hypersensitivity reaction and can be used for a determination of variations in the extent of the delayed hypersensitivity reaction upon drug administration to the host. An increase in the extent of the delayed hypersensitivity reaction upon drug administration consequently indicates enhanced cell-mediated immunity in the host.
# This example illustrates the effect of the compounds of the general formula I in the adjuvant arthritis test in rats.
# as §1, with “produces” for “produces a measureable extent of”, “variations” for “variations in the extent”
# A modification of a method described in (12) was used. Male Lister hooded rats weighing 250-275 g were used. At least 9 animals were used in each experimental group.
# A single intradermal injection of 0.5 mg/0.1 ml heat killed Mycobacterium butyricum suspended in sterile liquid paraffinum was given into the right hind foot of all rats. After this injection, day 0, the volume of the left hind paw, measured by water displacement, was followed to the end of the experiment.
# The substances suspended in aqueous methocel solution 10 ml/kg were given intragastrically. The control group was given methocel solution 10 ml/kg. The different groups of animals were thus treated once daily from day -4 to day 14. The effect of the substances was assessed by the left foot volume expressed in percent after comparison with the control groups.
# [3] = system: delayed hypersensitivity reaction (pertussis vaccine pleurisy); test: pertussis vaccine pleurisy test in rats; type: in vivo, rat (male Sprague-Dawley); conditions: for change in vivo at 10 mg/kg: Rattus norvegicus, po, 48 h, read-out: Enhancement of the delayed hypersensitivity reaction assessed by the exudate vol.
# Text: A useful test for the evaluation of the effect of chemical compounds on the immune system is the pertussis vaccine pleurisy test in rats. Compounds which enhance the response in this delayed hypersensitivity reaction are considered to stimulate cell-mediated immunity (4).
# This example illustrates the effect of the compounds of the general formula I in the pertussis vaccine pleurisy test.
# Pertussis vaccine pleurisy is a useful test for the evaluation of the effect of chemical compounds on the immune system. Compounds which enhance the response in this delayed hypersensitivity reaction are considered to stimulate cell-mediated immunity.
# A modification of a method described in (4) was used. Male Sprague-Dawley rats weighing 250-275 g were used. At least ten animals were used in each group.
# Equal volumes of Freund's incomplete adjuvant and a suspension of heat killed Bordetella pertussis organisms were mixed. To sensitize animals, day 0, 0.2 ml of a mixture containing 0.036×10^10 organisms/ml was injected into the dorsal surface of one hind paw and one forepaw.
# The animals were challenged on day 12 with 0.1 ml of a mixture containing 0.25×10^10 organisms/ml that was injected intrapleurally. 48 hours after challenge, day 14, the volume of the exudate in the pleural cavity was measured.
# The substances suspended in aqueous methocel solution 10 ml/kg were given intragastrically once daily from day 10 to day 13. The control groups were given methocel solution 10 ml/kg.
# The effect of the substances was assessed by the exudate volume expressed in percent after comparison with the control groups.
# [4] = Rattus norvegicus, po, 336 h, 40 mg/kg p.o., once daily day -4 to day 14, vs control, preliminary, read-out: Increase of the volume of the left foot
# [5] = 10 mg/kg p.o., once daily day 10 to day 13, vs control, preliminary
smiles,measurement,setting,value
"Cn1c(=O)c(C(=O)Nc2ccccc2)c(O)c2ccccc21 [1:1, N-phenyl-1,2-dihydro-4-hydroxy-1-methyl-2-oxo-quinoline-3-carboxamide]",change in vivo at 80 mg/kg,[1],40%
same,change in vivo at 20 mg/kg,"[2]; Rattus norvegicus, po, 336 h, 20 mg/kg p.o., once daily day -4 to day 14, vs control, preliminary, read-out: Increase of the volume of the left foot",50%
same,change in vivo at 40 mg/kg,[2]; [4],41%
same,change in vivo at 10 mg/kg,[3]; [5],55%
"COc1ccc2c(c1)c(O)c(C(=O)Nc1ccccc1)c(=O)n2C [1:2, N-phenyl-1,2-dihydro-4-hydroxy-6-methoxy-1-methyl-2-oxo-quinoline-3-carboxamide]",change in vivo at 80 mg/kg,[1],61%
same,significant potentiating effect in the adjuvant arthritis test,[2]; 40 mg/kg p.o.,significant potentiating effect
same,significant enhancing effect in the pertussis vaccine pleurisy test,[3]; 10 mg/kg p.o.,significant enhancing effect
"Cn1c(=O)c(C(=O)Nc2ccc(Cl)cc2)c(O)c2ccccc21 [1:9, N-/4-chlorophenyl/-1,2-dihydro-4-hydroxy-1-methyl-2-oxo-quinoline-3-carboxamide]",change in vivo at 80 mg/kg,[1],48%
same,significant potentiating effect in the adjuvant arthritis test,[2]; 40 mg/kg p.o.,significant potentiating effect
same,significant enhancing effect in the pertussis vaccine pleurisy test,[3]; 10 mg/kg p.o.,significant enhancing effect
"CCn1c(=O)c(C(=O)Nc2ccccc2)c(O)c2ccccc21 [1:10, N-phenyl-1,2-dihydro-1-ethyl-4-hydroxy-2-oxo-quinoline-3-carboxamide]",change in vivo at 80 mg/kg,[1],68%
same,significant potentiating effect in the adjuvant arthritis test,[2]; 40 mg/kg p.o.,significant potentiating effect
same,change in vivo at 10 mg/kg,[3]; [5],30%
"CN(C)c1ccc(NC(=O)c2c(O)c3ccccc3n(C)c2=O)cc1 [1:11, N-/4-dimethylaminophenyl/-1,2-dihydro-4-hydroxy-1-methyl-2-oxo-quinoline-3-carboxamide]",change in vivo at 80 mg/kg,[1],76%
same,change in vivo at 40 mg/kg,[2]; [4],45%
same,change in vivo at 10 mg/kg,[3]; [5],37%
"Cn1c(=O)c(C(=O)Nc2ccc(CC(=O)O)cc2)c(O)c2ccccc21 [1:12, N-/4-carboxymethylphenyl/-1,2-dihydro-4-hydroxy-1-methyl-2-oxo-quinoline-3-carboxamide]",change in vivo at 80 mg/kg,[1],29%
same,significant potentiating effect in the adjuvant arthritis test,[2]; 40 mg/kg p.o.,significant potentiating effect
same,change in vivo at 10 mg/kg,[3]; [5],65%
"Cn1c(=O)c(C(=O)Nc2ccccc2)c(O)c2c(F)cccc21 [1:19, N-phenyl-1,2-dihydro-5-fluoro-4-hydroxy-1-methyl-2-oxo-quinoline-3-carboxamide]",change in vivo at 80 mg/kg,[1],67%
same,significant potentiating effect in the adjuvant arthritis test,[2]; 40 mg/kg p.o.,significant potentiating effect
same,significant enhancing effect in the pertussis vaccine pleurisy test,[3]; 10 mg/kg p.o.,significant enhancing effect
"CN(C(=O)c1c(O)c2ccccc2n(C)c1=O)c1ccc(O)cc1 [21:11, N-(4-hydroxyphenyl)-N-methyl-1,2-dihydro-4-hydroxy-1-methyl-2-oxo-quinoline-3-carboxamide]",significant potentiating effect in the adjuvant arthritis test,[2]; 40 mg/kg p.o.,significant potentiating effect
same,change in vivo at 10 mg/kg,[3]; [5],34%
"COc1cccc(N(C)C(=O)c2c(O)c3cc(C)ccc3n(C(C)C)c2=O)c1 [21:17, N-(3-methoxyphenyl)-N-methyl-1,2-dihydro-4-hydroxy-1-isopropyl-6-methyl-2-oxo-quinoline-3-carboxamide]",significant potentiating effect in the adjuvant arthritis test,[2]; 40 mg/kg p.o.,significant potentiating effect
same,significant enhancing effect in the pertussis vaccine pleurisy test,[3]; 10 mg/kg p.o.,significant enhancing effect
"CN(C(=O)c1c(O)c2ccccc2n(-c2ccc(F)cc2)c1=O)c1ccc(N2CCCC2)cc1 [21:19, N-methyl-N-(4-pyrrolidinophenyl)-1-(4-fluorophenyl)-1,2-dihydro-4-hydroxy-2-oxo-quinoline-3-carboxamide]",significant potentiating effect in the adjuvant arthritis test,[2]; 40 mg/kg p.o.,significant potentiating effect
"CN(C(=O)c1c(O)c2ccccc2n(C)c1=O)c1nccs1 [21:21, N-methyl-N-2-thiazolyl-1,2-dihydro-4-hydroxy-1-methyl-2-oxo-quinoline-3-carboxamide]",significant potentiation of the carrageenan edema,[1]; dose within the range 10-160 mg/kg p.o.,potentiate significantly
same,significant enhancing effect in the pertussis vaccine pleurisy test,[3]; 10 mg/kg p.o.,significant enhancing effect
"CN(C(=O)c1c(O)c2ccccc2n(C)c1=O)c1cnccn1 [21:23, N-methyl-N-pyrazinyl-1,2-dihydro-4-hydroxy-1-methyl-2-oxo-quinoline-3-carboxamide]",significant potentiating effect in the adjuvant arthritis test,[2]; 40 mg/kg p.o.,significant potentiating effect
same,significant enhancing effect in the pertussis vaccine pleurisy test,[3]; 10 mg/kg p.o.,significant enhancing effect
"Cc1cc(N(C)C(=O)c2c(O)c3cc(Cl)ccc3n(C)c2=O)sn1 [21:24, N-methyl-N-(3-methyl-5-isothiazolyl)-6-chloro-1,2-dihydro-4-hydroxy-1-methyl-2-oxo-quinoline-3-carboxamide]",significant potentiating effect in the adjuvant arthritis test,[2]; 40 mg/kg p.o.,significant potentiating effect
same,significant enhancing effect in the pertussis vaccine pleurisy test,[3]; 10 mg/kg p.o.,significant enhancing effect
"CCN(C(=O)c1c(O)c2cc(N(C)C)ccc2n(C)c1=O)c1ccccn1 [21:26, N-ethyl-N-2-pyridyl-1,2-dihydro-6-dimethylamino-4-hydroxy-1-methyl-2-oxo-quinoline-3-carboxamide]",significant potentiating effect in the adjuvant arthritis test,[2]; 40 mg/kg p.o.,significant potentiating effect
same,significant enhancing effect in the pertussis vaccine pleurisy test,[3]; 10 mg/kg p.o.,significant enhancing effect
"COc1ccc(N(C)C(=O)c2c(O)c3cccc4c3n(c2=O)CC4)cc1 [21:28, N-(4-methoxyphenyl)-N-methyl-1,2-dihydro-1,8-ethylene-4-hydroxy-2-oxo-quinoline-3-carboxamide]",significant potentiating effect in the adjuvant arthritis test,[2]; 40 mg/kg p.o.,significant potentiating effect
same,significant enhancing effect in the pertussis vaccine pleurisy test,[3]; 10 mg/kg p.o.,significant enhancing effect
"CN(C)c1ccc(N(C)C(=O)c2c(O)c3cccc4c3n(c2=O)CC4)cc1 [21:30, N-(4-dimethylaminophenyl)-N-methyl-1,2-dihydro-1,8-ethylene-4-hydroxy-2-oxo-quinoline-3-carboxamide]",significant potentiating effect in the adjuvant arthritis test,[2]; 40 mg/kg p.o.,significant potentiating effect
same,significant enhancing effect in the pertussis vaccine pleurisy test,[3]; 10 mg/kg p.o.,significant enhancing effect
"CN(C(=O)c1c(O)c2cccc3c2n(c1=O)CC3)c1nccs1 [21:31, N-methyl-N-2-thiazolyl-1,2-dihydro-1,8-ethylene-4-hydroxy-2-oxo-quinoline-3-carboxamide]",significant potentiating effect in the adjuvant arthritis test,[2]; 40 mg/kg p.o.,significant potentiating effect
same,significant enhancing effect in the pertussis vaccine pleurisy test,[3]; 10 mg/kg p.o.,significant enhancing effect
"CCN(C(=O)c1c(O)c2cccc3c2n(c1=O)CCC3)c1ccccn1 [21:33, N-ethyl-N-2-pyridyl-1,2-dihydro-4-hydroxy-2-oxo-1,8-trimethylene-quinoline-3-carboxamide]",significant potentiating effect in the adjuvant arthritis test,[2]; 40 mg/kg p.o.,significant potentiating effect
same,significant enhancing effect in the pertussis vaccine pleurisy test,[3]; 10 mg/kg p.o.,significant enhancing effect
"CC(C)(S)[C@@H](N)C(=O)O [Penicillamine, penicillamine, reference compound]",change in vivo at 40 mg/kg,"[2]; Rattus norvegicus, po, 336 h, read-out: Increase of the volume of the left foot",0%
same,change in vivo at 10 mg/kg,[3],17%
